Experimental data from US9618507B2, “Methods of treating rheumatoid arthritis” (Betanien Hospital, priority 2014, dated 2017).
Like-named read-outs stand apart in the source and are kept apart here. Marks after values point to notes of the source that are not given here. Where a SMILES comes first, the peptide text is derived from it. [ ]: non-standard residue; d: D form. dPhe(4-Cl) = N[C@H](Cc1ccc(Cl)cc1)C(=O)O; d2Nal = N[C@H](Cc1ccc2ccccc2c1)C(=O)O; dCit = NC(=O)NCCC[C@@H](N)C(=O)O; d3Pal = N[C@H](Cc1cccnc1)C(=O)O

Tests used:
[1] = tested on: myeloma cells; conditions: Wen J, et al., Mol Cancer Ther 2011; cited from earlier work
[2] = tested on: TNF-α; assay: Example 2: serum cytokine, multiplex high-sensitivity assay, TNF-α; type: in vivo, human; conditions: high gonadotropin patients
Experimental: (§1) The protocol-specified primary and secondary intention-to-treat endpoints of the original AGRA trial were analyzed in these post hoc analyses. The primary endpoint was the baseline-adjusted between-group difference in DAS28-CRP (Wells et al., supra) by day 5b. Secondary endpoints included the baseline-adjusted between-group difference in cytokines, proportions of patients achieving at least a 20%, 50%, and 70% improvement on the ACR scale (Felson D T, et al., Arthritis Rheum 1995; 38:727-35), categorical DAS28-CRP (European League Against […] [EULAR]) responses (Wells et al., supra; van Gestel A M, et al., Arthritis Rheum 1996; 39:34-40), DAS28-CRP≦3.2 (Wells et al., supra), DAS28-CRP<2.6 (Wells et al., supra), and the incidence of adverse events. Protocol-specified DAS28 outcomes were preferentially CRP-based rather than erythrocyte sedimentation rate (ESR)-based, as CRP usually changes before ESR. […] Multiplex technology (Luminex Inc., Austin, Tex.) measured these serum cytokines using high-sensitivity assays (sensitivities <0.5 pg/mL, allowing the detection of very low concentrations of cytokines) and identical lots of critical reagent of negligible cross-reactivity <2%, according to manufacturers' instructions (Bio-Rad, Hercules, Calif.). […] To enable intention-to-treat analyses with all patients N=53, non-detectable values were set at the lower limit of detection for cytokines, as is common for CRP values.
The original power calculation is previously reported (Kass A S, et al., Scand J Rheumatol Epub ahead of print 1 Nov. 2013). Baseline-adjusted between-group differences for all continuous endpoints were assessed with the use of analysis-of-covariance using outcome measurements at predefined time points as response variables, and treatment and baseline measurements as covariates. Dichotomous endpoints were compared with the Pearson chi-square test or Suissa-Shuster exact unconditional test, depending on expected-value distribution (Lydersen S, et al., Stat Med 2009; 28:1159-75). […]

[3] = tested on: gonadotropins, oestradiol, testosterone, cortisol; assay: Example 2: hormones (gonadotropins, oestradiol, testosterone, cortisol) in high gonadotropin patients; type: in vivo, human
Excerpt: Non-competitive immunofluorometric assays were used for the quantitative determination of serum LH and FSH (Dissociation Enhanced Lanthanide Fluoroimmunoassay [DELFIA] kit, Turku, Finland). A competitive immunofluorometric assay was used for the determination of serum oestradiol (DELFIA kit, Turku, Finland). A competitive radioimmunoassay was used for the quantitative determination of serum testosterone (Orion Diagnostica. Espoo, Finland). A competitive Iuminoimmunoassay was used for the quantitative determination of serum cortisol (Immulite 2000, California, USA).

[4] = target: T1, GnRH receptors (Rattus norvegicus, UniProt P30969); conditions: rats; Rick F G, et al., Prostate 2011; cited from earlier work
T1 construct: through GnRH receptors in rats; host or cells: rats (in vivo)
T1 sequence (P30969 1-327): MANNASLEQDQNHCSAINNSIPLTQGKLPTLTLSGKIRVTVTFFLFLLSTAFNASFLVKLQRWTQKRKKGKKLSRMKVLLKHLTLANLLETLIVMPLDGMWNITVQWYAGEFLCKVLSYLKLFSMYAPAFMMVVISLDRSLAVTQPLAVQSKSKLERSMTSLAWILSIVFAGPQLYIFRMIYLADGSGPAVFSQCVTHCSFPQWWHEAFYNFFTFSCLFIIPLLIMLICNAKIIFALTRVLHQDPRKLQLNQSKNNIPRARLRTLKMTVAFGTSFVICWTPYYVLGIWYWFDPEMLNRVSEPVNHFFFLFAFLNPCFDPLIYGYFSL

[5] = tested on: interleukin-1β; assay: Example 2: serum cytokine, multiplex high-sensitivity assay, interleukin-1β; type: in vivo, human; conditions: high gonadotropin patients
Experimental: as §1
(§2) The original power calculation is previously reported (Kass A S, et al., Scand J Rheumatol Epub ahead of print 1 Nov. 2013). Baseline-adjusted between-group differences for all continuous endpoints were assessed with the use of analysis-of-covariance using outcome measurements at predefined time points as response variables, and treatment and baseline measurements as covariates. Dichotomous endpoints were compared with the Pearson chi-square test or Suissa-Shuster exact unconditional test, depending on expected-value distribution (Lydersen S, et al., Stat Med 2009; 28:1159-75). No adjustments for multiple analyses were made, owing to highly correlated endpoints. Due to skewed distributions, between-group changes of natural log-transformed cytokine levels from baseline were compared.

[6] = tested on: CRP; conditions: high gonadotropin patients, by day 15
Experimental: The protocol-specified primary and secondary intention-to-treat endpoints of the original AGRA trial were analyzed in these post hoc analyses. The primary endpoint was the baseline-adjusted between-group difference in DAS28-CRP (Wells et al., supra) by day 5b. […] Multiplex technology (Luminex Inc., Austin, Tex.) measured these serum cytokines using high-sensitivity assays (sensitivities <0.5 pg/mL, allowing the detection of very low concentrations of cytokines) and identical lots of critical reagent of negligible cross-reactivity <2%, according to manufacturers' instructions (Bio-Rad, Hercules, Calif.). […]
The original power calculation is previously reported (Kass A S, et al., Scand J Rheumatol Epub ahead of print 1 Nov. 2013). Baseline-adjusted between-group differences for all continuous endpoints were assessed with the use of analysis-of-covariance using outcome measurements at predefined time points as response variables, and treatment and baseline measurements as covariates. […]

[7] = tested on: interleukin-2; assay: Example 2: serum cytokine, multiplex high-sensitivity assay, interleukin-2; type: in vivo, human; conditions: high gonadotropin patients
Experimental: as §1, §2

[8] = tested on: RA patients with high gonadotropin levels; assay: Example 2: adverse events in high gonadotropin patients; type: in vivo, human
Experimental: The intention-to-treat population was predefined as all randomised patients who received any study-drug injections. Missing values were <1% and could, as predefined, be imputed with the last-observation-carried-forward. The assumptions of normality needed for analyses were approximately valid. All statistical tests were two-sided (α=0.05) and performed with Stata 12 and StatXact 9. Analyses were performed by an offsite statistician who received locked databases from blinded investigators and laboratories, and the allocation key from the offsite central office.

[9] = tested on: TNF-α; assay: Example 1: serum TNF-α, high sensitivity bead-based fluorescence immunoassay; type: in vivo, human; conditions: by day 5
Experimental: Ethical committee approval was obtained. […] Safety and efficacy visits, with blood sampling, were between 0730 and 0930 h on days 1 (baseline), 2, 3, 4, 5 (visit 5a), 10, and 15. There was an additional visit (visit 5b) between 1930 and 2130 h when maximum GnRH suppression was anticipated.
TNF-α was measured using a high sensitivity bead-based fluorescence immunoassay (Luminex Inc., Austin, Tex. USA) with multiplex technology according to the manufacturers' instructions. […] Samples were assayed together within the same microplate on the same day. The assay sensitivity for TNF-α was 0.5 pg/mL. Due to its skewed distribution, the statistical analysis gives both the log and relative change (%) of TNF-α from baseline.

CC(=O)N[C@H](Cc1ccc2ccccc2c1)C(=O)N[C@H](Cc1ccc(Cl)cc1)C(=O)N[C@H](Cc1cccnc1)C(=O)N[C@@H](CO)C(=O)N[C@@H](Cc1ccc(O)cc1)C(=O)N[C@H](CCCNC(N)=O)C(=O)N[C@@H](CC(C)C)C(=O)N[C@@H](CCCNC(=N)N)C(=O)N1CCC[C@H]1C(=O)N[C@H](C)C(N)=O [cetrorelix] (Ac-[d2Nal][dPhe(4-Cl)][d3Pal]SY[dCit]LRP[dA]-NH2)
pro-inflammatory cytokine gene expression through GnRH receptors [1]: directly decrease | TNF-α level, Final Day 15 ([2]; N = 27, mean ± SD): 0.01 ± 2.1 log pg/mL | TNF-α Change from baseline by day 15 ([2]; N = 27, placebo +0.02): −0.45 log pg/mL | TNF-α Baseline-Adjusted Between-Group Difference ([2]; day 15, 95% CI (0.01, 0.96), P < 0.05): 0.49‡ log pg/mL | Cortisol change compared with placebo (words) [3]: significantly decreased | gonadotropins change compared to placebo [3]: significantly reduced | oestradiol change compared to placebo [3]: significantly reduced | testosterone change compared to placebo [3]: significantly reduced | gonadotropin levels, onset ([3]; by day 2): decreased | Cortisol between-group difference ([3]; by day 5, 95% CI 10.5 to 95.8, P=0.016): 53.1 nmol/L | Cortisol change compared with placebo (words) ([3]; listed as Cetrorelix): significantly reduced | pro-inflammatory cytokine gene expression through GnRH receptors [4]: directly decrease | IL-1β level, Final Day 15 ([5]; N = 27, mean ± SD): −1.68 ± 1.4 log pg/mL | IL-1β Change from baseline by day 15 ([5]; N = 27, placebo +0.10): −0.20 log pg/mL | Interleukin-1β change compared with placebo ([5]; by day 15, P=0.034): significantly decreased | IL-1β Baseline-Adjusted Between-Group Difference ([5]; day 15, 95% CI (0.02, 0.59), P < 0.05): 0.30‡ log pg/mL | CRP between-group difference ([6]; 95% CI 0.22 to 10.7, P=0.042): 5.45 mg/L | CRP change ([6]; placebo 0.85): -5.1 mg/L | IL-2 level, Final Day 15 ([7]; N = 27, mean ± SD): −3.39 ± 2.9 log pg/mL | IL-2 Change from baseline by day 15 ([7]; N = 27, placebo +0.02): −0.42 log pg/mL | interleukin-2 change compared with placebo ([7]; by day 15, P=0.088): decreased non-significantly | IL-2 Baseline-Adjusted Between-Group Difference ([7]; day 15, 95% CI (−1.09, 0.08)): -0.51 log pg/mL | Adverse events: Headache ([8]; N = 27): 2 (7.4) no. % | Adverse events: Injection site discomfort ([8]; N = 27): 2 (7.4) no. % | Adverse events: Nausea ([8]; N = 27): 0 no. % | Adverse events severity ([8]; high gonadotropin patients): mild | TNF-α reduction (change from baseline) ([9]; all patients with detectable TNF-α, placebo −0.02): −0.58 log pg/mL | TNF-α between group difference vs placebo ([9]; 95% CI 0.08-1.01, p 0.023): 0.55 log pg/mL | TNF-α percentage change from baseline ([9]; placebo 11.1%): −28.2%
